Values joined by “and” are separate entries in the source; they are usually repeats but may differ in a detail not shown here. Equal values may be shown once. Inconclusive results and toxic doses are left out.
Tested on: BDF1 mice, P388 leukemia ip, median survival T/C
Assay: NCI In Vivo Anticancer Drug Screen. Data for tumor model P388 Leukemia (intraperitoneal) in B6D2F1 (BDF1) mice
Settings: endpoint: median survival time, higher = longer survival
Procedure, shortened: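 Reported as T/C, where T is the survival measurement in dosed animals and C the same measurement in vehicle controls.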

[1] = dose: 100.0 mg/kg/injection, schedule: Q01DX009 (ip), vehicle: saline with Tween-80
[2] = dose: 200.0 mg/kg/injection, schedule: Q01DX009 (ip), vehicle: saline with Tween-80
[3] = dose: 400.0 mg/kg/injection, schedule: Q01DX009 (ip), vehicle: saline with Tween-80
[4] = dose: 100.0 mg/kg/injection, schedule: Q01DX001 (ip), vehicle: saline with Tween-80
[5] = dose: 200.0 mg/kg/injection, schedule: Q01DX001 (ip), vehicle: saline with Tween-80
[6] = dose: 50.0 mg/kg/injection, schedule: Q01DX009 (ip), vehicle: Klucel (hydroxypropylcellulose) (HPC)
[7] = dose: 100.0 mg/kg/injection, schedule: Q01DX009 (ip), vehicle: Klucel (hydroxypropylcellulose) (HPC)
[8] = dose: 50.0 mg/kg/injection, schedule: Q01DX009 (ip), vehicle: saline with Tween-80
[9] = dose: 50.0 mg/kg/injection, schedule: Q04DX003 (ip), vehicle: Klucel (hydroxypropylcellulose) (HPC)
[10] = dose: 100.0 mg/kg/injection, schedule: Q04DX003 (ip), vehicle: Klucel (hydroxypropylcellulose) (HPC)
[11] = dose: 200.0 mg/kg/injection, schedule: Q04DX003 (ip), vehicle: Klucel (hydroxypropylcellulose) (HPC)
[12] = dose: 200.0 mg/kg/injection, schedule: Q01DX009 (ip), vehicle: Klucel (hydroxypropylcellulose) (HPC)
[13] = dose: 100.0 mg/kg/injection, schedule: Q04DX003 (ip), vehicle: saline with Tween-80
[14] = dose: 200.0 mg/kg/injection, schedule: Q04DX003 (ip), vehicle: saline with Tween-80
[15] = dose: 400.0 mg/kg/injection, schedule: Q04DX003 (ip), vehicle: saline with Tween-80
[16] = dose: 132.0 mg/kg/injection, schedule: Q04DX003 (ip), vehicle: saline with Tween-80
[17] = dose: 300.0 mg/kg/injection, schedule: Q01DX009 (ip), vehicle: saline with Tween-80
[18] = dose: 400.0 mg/kg/injection, schedule: Q01DX009 (ip), vehicle: Klucel (hydroxypropylcellulose) (HPC)

## Cc1ccc(NC(=O)c2ccc(C)c([N+](=O)[O-])c2)c(C)c1
dose: 100.0 mg/kg/injection, schedule: Q01DX008 (sc), vehicle: olive oil, sesame oil, peanut oil
  T/C: 87 % of control
dose: 100.0 mg/kg/injection, schedule: Q04DX003 (sc), vehicle: olive oil, sesame oil, peanut oil
  T/C: 88 % of control
dose: 200.0 mg/kg/injection, schedule: Q01DX008 (sc), vehicle: olive oil, sesame oil, peanut oil
  T/C: 100 % of control
dose: 200.0 mg/kg/injection, schedule: Q04DX003 (sc), vehicle: olive oil, sesame oil, peanut oil
  T/C: 88 % of control
dose: 400.0 mg/kg/injection, schedule: Q01DX008 (sc), vehicle: olive oil, sesame oil, peanut oil
  T/C: 87 % of control
dose: 400.0 mg/kg/injection, schedule: Q04DX003 (sc), vehicle: olive oil, sesame oil, peanut oil
  T/C: 92 % of control

## Clc1nc2nc(C3CC3)[nH]c2nc1Cl
[1]
  T/C: 104 % of control
[2]
  T/C: 100 % of control
[3]
  T/C: 104 % of control

## CC1(C)C(N2CCOCC2)C(c2ccccc2)S1(=O)=O (stereo not given)
[4]
  T/C: 100 % of control
dose: 400.0 mg/kg/injection, schedule: Q01DX001 (ip), vehicle: saline with Tween-80
  T/C: 95 % of control

## CC1(C)OCC(/C=C/C=N/Nc2ccc([N+](=O)[O-])cc2)O1 (stereo not given)
[4]
  T/C: 105 % of control
[5]
  T/C: 110 % of control

## c1ccc2c(c1)C1c3cccc[n+]3C2CC1n1c2ccccc2c2ccccc21 (stereo not given)
dose: 6.25 mg/kg/injection, schedule: Q01DX009 (ip), vehicle: Klucel (hydroxypropylcellulose) (HPC)
  T/C: 100 % of control
dose: 12.5 mg/kg/injection, schedule: Q01DX009 (ip), vehicle: Klucel (hydroxypropylcellulose) (HPC)
  T/C: 100 % of control and 108 % of control
dose: 16.0 mg/kg/injection, schedule: Q01DX009 (ip), vehicle: Klucel (hydroxypropylcellulose) (HPC)
  T/C: 100 % of control
dose: 25.0 mg/kg/injection, schedule: Q01DX009 (ip), vehicle: Klucel (hydroxypropylcellulose) (HPC)
  T/C: 87 % of control and 113 % of control
[6]
  T/C: 91 % of control
[7]
  T/C: 100 % of control

## CCC(C)(OC(C)=O)C(=O)O[C@H]1C(=O)O[C@@H]2C[C@H]3C(C)=CC(=O)[C@@H](O)[C@]3(C)[C@H]3[C@@]4(O)OC[C@]32[C@@H]1[C@@H](C)[C@H]4O (stereo not given in full)
dose: 0.25 mg/kg/injection, schedule: Q01DX009 (ip), vehicle: saline
  T/C: 119 % of control
dose: 1.25 mg/kg/injection, schedule: Q01DX009 (ip), vehicle: saline
  T/C: 157 % of control
dose: 2.0 mg/kg/injection, schedule: Q01DX009 (ip), vehicle: saline
  T/C: 121 % of control
dose: 5.0 mg/kg/injection, schedule: Q01DX009 (ip), vehicle: saline
  T/C: 123 % of control

## Cc1cc(C)c(C)c(Br)c1
[8]
  T/C: 100 % of control
[1]
  T/C: 104 % of control

## CC(Sc1ncnc2nc[nH]c12)c1ccccc1 (stereo not given)
[9]
  T/C: 100 % of control
[10]
  T/C: 100 % of control
[11]
  T/C: 110 % of control

## COC12C(COC(N)=O)C3=C(C(=O)C(C)=C(N4CC4)C3=O)N1CC1NC12 (stereo not given)
dose: 0.21 mg/kg/injection, schedule: Q04DX003 (ip), vehicle: saline with Tween-80
  T/C: 235 % of control
dose: 0.33 mg/kg/injection, schedule: Q04DX003 (ip), vehicle: saline with Tween-80
  T/C: 200 % of control
dose: 0.5 mg/kg/injection, schedule: Q04DX003 (ip), vehicle: saline with Tween-80
  T/C: 190 % of control
dose: 0.75 mg/kg/injection, schedule: Q04DX003 (ip), vehicle: saline with Tween-80
  T/C: 255 % of control

## C[C@]12CCC(=O)C=C1CC[C@@H]1C2=CC[C@@]2(C)[C@H]1CC[C@]2(C)O
dose: 0.78 mg/kg/injection, schedule: Q01DX009 (ip), vehicle: Klucel (hydroxypropylcellulose) (HPC)
  T/C: 100 % of control
dose: 1.56 mg/kg/injection, schedule: Q01DX009 (ip), vehicle: Klucel (hydroxypropylcellulose) (HPC)
  T/C: 90 % of control
dose: 3.12 mg/kg/injection, schedule: Q01DX009 (ip), vehicle: Klucel (hydroxypropylcellulose) (HPC)
  T/C: 86 % of control
[6]
  T/C: 87 % of control
[10]
  T/C: 109 % of control
[12]
  T/C: 87 % of control
[11]
  T/C: 104 % of control

## C[N+](C)(C)CCCSC1=NCCN1
dose: 6.25 mg/kg/injection, schedule: Q01DX009 (ip), vehicle: saline
  T/C: 106 % of control
dose: 12.5 mg/kg/injection, schedule: Q01DX009 (ip), vehicle: saline
  T/C: 107 % of control
dose: 25.0 mg/kg/injection, schedule: Q01DX009 (ip), vehicle: saline
  T/C: 103 % of control

## C=CCN(CC=C)CCNc1nc(C(Cl)(Cl)Cl)nc2ccc(Cl)cc12
[13]
  T/C: 100 % of control
[14]
  T/C: 112 % of control
[15]
  T/C: 116 % of control

## O=C(CC(O)(C(F)(F)F)C(F)(F)F)c1ccc(F)cc1
dose: 100.0 mg/kg/injection, schedule: Q04DX003 (ip), vehicle: other
  T/C: 120 % of control

## COC(OC)C1(O)CC(C(C)/C=C(/C)C(CC(=O)N(C)c2ccccc2)OCc2ccccc2)OC(=O)N1 (stereo not given)
[9]
  T/C: 99 % of control
[10]
  T/C: 109 % of control
[11]
  T/C: 118 % of control

## Cc1c(C)c([N+](=O)[O-])c(Br)c(C)c1[N+](=O)[O-]
[1]
  T/C: 95 % of control
[13]
  T/C: 104 % of control
[16]
  T/C: 109 % of control
[2]
  T/C: 90 % of control
[14]
  T/C: 118 % of control
dose: 300.0 mg/kg/injection, schedule: Q04DX003 (ip), vehicle: saline with Tween-80
  T/C: 100 % of control
[3]
  T/C: 95 % of control
[15]
  T/C: 122 % of control

## CC1CN1P(=S)(Oc1ccccc1)N1CC1C (stereo not given)
[2]
  T/C: 150 % of control
dose: 264.0 mg/kg/injection, schedule: Q01DX009 (ip), vehicle: saline with Tween-80
  T/C: 122 % of control
[17]
  T/C: 155 % of control
[3]
  T/C: 150 % of control

## Cc1ccc(C(SCC(N)C(=O)O)(c2ccccc2)c2ccc(C)cc2)cc1 (stereo not given)
[8]
  T/C: 268 % of control
[1]
  T/C: 172 % of control
[16]
  T/C: 190 % of control
[14]
  T/C: 231 % of control

## Nc1nc(SSc2nc(N)nc3c2ncn3C2CC(O)C(CO)O2)c2ncn(C3CC(O)C(CO)O3)c2n1 (stereo not given)
[6]
  T/C: 150 % of control
[7]
  T/C: 100 % of control

## COc1cc(/C=N\NC(=O)c2cccc(Cl)c2)ccc1N(CCCl)CCCl
dose: 264.0 mg/kg/injection, schedule: Q04DX003 (ip), vehicle: saline with Tween-80
  T/C: 173 % of control
[15]
  T/C: 234 % of control
dose: 600.0 mg/kg/injection, schedule: Q04DX003 (ip), vehicle: saline with Tween-80
  T/C: 260 % of control

## OCCC[P+](c1ccccc1)(c1ccccc1)c1ccccc1
[9]
  T/C: 113 % of control
[10]
  T/C: 109 % of control

## CCCCCCC(=O)/C=C/c1ccc(Cl)c(Cl)c1
dose: 75.0 mg/kg/injection, schedule: Q01DX009 (ip), vehicle: saline with Tween-80
  T/C: 106 % of control
dose: 150.0 mg/kg/injection, schedule: Q01DX009 (ip), vehicle: saline with Tween-80
  T/C: 98 % of control
[17]
  T/C: 93 % of control

## CC1CCC[N-]C1.CC1CCC[N-]C1.CC1CCC[N-]C1.CC1CCC[N-]C1.[Cl][Rh][Cl] (stereo not given)
dose: 3.0 mg/kg/injection, schedule: Q01DX009 (ip), vehicle: Klucel (hydroxypropylcellulose) (HPC)
  T/C: 162 % of control

## CCOC(CNC(=O)OCc1ccccc1)OCC
[7]
  T/C: 105 % of control
[12]
  T/C: 100 % of control
[18]
  T/C: 105 % of control

## CC1(C)N=C(N)N=C(N)N1c1ccc(CCCCc2ccc(S(=O)(=O)F)cc2)cc1
dose: 12.0 mg/kg/injection, schedule: Q01DX009 (ip), vehicle: saline
  T/C: 150 % of control

## CCCCC(C)(O)CC (stereo not given)
[8]
  T/C: 109 % of control
[1]
  T/C: 118 % of control
[13]
  T/C: 104 % of control
[2]
  T/C: 100 % of control
[14]
  T/C: 104 % of control

## O=C(NCCO)c1cc2ccccc2cc1O
[7]
  T/C: 90 % of control
[10]
  T/C: 104 % of control
[12]
  T/C: 100 % of control
[11]
  T/C: 100 % of control
[18]
  T/C: 100 % of control
dose: 400.0 mg/kg/injection, schedule: Q04DX003 (ip), vehicle: Klucel (hydroxypropylcellulose) (HPC)
  T/C: 100 % of control

## O=C(c1ccccc1)C(c1ccccc1)C(O)(C(F)(F)F)C(F)(F)F (stereo not given)
[4]
  T/C: 100 % of control
[5]
  T/C: 95 % of control

## Cc1ccc2c(c1)NC(c1ccc(C(=O)O)cc1)c1cccn1-2 (stereo not given)
[8]
  T/C: 86 % of control
[1]
  T/C: 89 % of control
[2]
  T/C: 91 % of control

## COc1cccc(C=O)c1OC
dose: 50.0 mg/kg/injection, schedule: Q04DX003 (ip), vehicle: saline with Tween-80
  T/C: 112 % of control
[13]
  T/C: 107 % of control
[14]
  T/C: 112 % of control
[15]
  T/C: 107 % of control

Source: PubChem BioAssay AID328 (DTP/NCI, 2004)
